{"source": "patent US6653344B2", "about": "“Pharmaceutical preparations containing a dibenzocyclooctane lignan derivative for treatment of neurodegenerative disease” (Elcom Bio Technology Co., Ltd., priority 2000, dated 2003)", "format_in_all_cases": "cell-based", "key": {"[1]": {"system": "GSH content in glutamate-injured primary cultured rat cortical cells", "experiment": "Measurement of total GSH (GSH+GSSG)", "conditions": "24 hr; for GSH: compound 1 µM for 1 hr before 100 µM glutamate, control 6.9, glutamate-treated 2.6; for Protection (GSH content): compound 1 M (1 uM) for 1 hr before 100 M glutamate", "procedure": "Cells were collected by adding 0.1M potassium phosphate buffer (pH 7.4) to culture-broth-removed remainings from first cultured cortical cells. The collected cells were treated by supersonic wave for 20 seconds and were centrifuged at 4° C. with 3,000 g for 20 minutes to obtain the supernatant.\nIn test tube, 70 μl solution containing 0.3 mM NADPH and 5 mM DTNB was prepared 0.100 μl of cell supernatant was added and final content 5 units/ml of GSSG-R was added thereto and was reacted. The increase of adsorption was measured at 412 nm for 1 minute. The content of GSH was converted and obtained by comparing the content of GSH with GSH standard. (Tietze F, Enzymatic method for quantative determination of nanogram amounts of total and oxidized glutathione, Anal Biochem 27: 502-522).\n(§1) In case glutamate is treated to first cultured cortical cells of mice, formation of NO is increased. […] When schizandrin is treated at the 1 μM concentration, it decreased NO content increased by glutamate. […] When deoxyschizandrin, gomisin N and wuweizisu C are treated at 1 uM concentration to first cultured cortical cells toxicity-induced by glutamate, those maintained about 50% of normal state activity of GSH-px and glutathione decreased by glutamate and have protective activity on the activity of antioxidant enzymes.\n(§2) Rat cortical cultures were treated with compounds at the concentration of 1 M for 1 hr before exposure to 100 M glutamate and then maintained for 24 hr. Values given represent the mean SD (n=3)."}, "[2]": {"system": "nitric oxide (NO) content in glutamate-damaged primary cultured rat cortical cells", "experiment": "Measurement of nitrite (Griess reagent), NO content", "conditions": "24 hr; for Nitrate: compound 1 µM for 1 hr before 100 µM glutamate, control 90.2, glutamate-treated 141.8; for Protection (NO content): compound 1 M (1 μM) for 1 hr before 100 M glutamate", "procedure": "The content of nitrite isolated into culture broth from first cultured cortical cells was assayed by using Griess reagent by Dawson's method (Dawson V L, Brahbhatt H P, Mong J A and Dawson T M (1994) Expression of inducible nitric oxide synthase causes delayed neurotoxicity in primary neuronal-glial cortical cultures. Neuropharmacology 33: 1425-1430).\nas §1, §2"}, "[3]": {"system": "NMDA-insulted primary cultured rat cortical cells", "experiment": "Neuroprotection against NMDA-induced toxicity, cell viability by MTT assay", "conditions": "for Viability (%) NMDA-insulted: compound 1 µM for 1 hr, then 50 µM NMDA, 24 hr", "procedure": "Primary cultures of mixed cortical cells containing both neuron and glia were prepared from fetal rats as described previously (Kim Y C, Kim S R, Markelonis G J and Oh T H (1998) Ginsenosides Rb1 and Rg3 protect cultured rat cortical cells from glutamate-induced neurodegeneration. J. Neurosci. Res. 53: 426-432).\nThe cortical cells were plated onto collagen-coated dishes at a density of 1×10^6 cells/ml. The cultured cells were grown in DMEM supplemented with 10% heat-inactivated fetal calf serum, 1 mM sodium pyruvate, 100 IU/ml pecicillin and 100 μg/ml streptomycin at 37° C. in a humidified atmosphere of 95% air/5% CO2. cultures were allowed to mature for 2 weeks before being used for experiments.\nTo culture broth of the cortical cells during being cultured, MTT(5 mg/ml) was added by 10% of the culture broth. The broth was cultured for more 3 hours. The formed formazan was dissolved by DMSO and was assayed absorption at 540 nm ((Mosmann T (1983) Rapid colorimetric assay for cellular growth and survival: Application to proliferation and cytotoxicity assays. J. Immuno. Methods 65: 55-61)\nGlutamate receiptor is divided into NMDA receiptor which is activated by NMDA and non-NMDA receiptor which is activated by alpha-amino-3-hydroxy-5-methyl-4-isoxazole and kainic acid (KA). To first cultured cortical cells, the above compounds were each treated. The neuro-protective activities of the compounds were measured, after toxicities were induced by NMDA, the NMDA receiptor agonist, or KA, the non-NMDA receiptor agonist.\nRat cortical cultures were treated with compounds at the concentration of 1 M for 1 hr. The cultures were then exposed to 50 µM NMDA or 50 µM KA and were maintained for an additional 24 hr. […]. Cell viability was measured by the MTT assay. Optical density of control, NMDA- and KA treated were 1.20±0.10, 0.77±0.05 and 0.85±0.08, respectively. Viability was calculated as the same as Table 1. Values given represent the mean SD (n=3)."}}, "data": [{"smiles": "COc1cc2c(c(OC)c1OC)-c1c(cc(OC)c(OC)c1OC)C[C@H](C)[C@H](C)C2", "note": "[Deoxyschizandrin, deoxyschizandrin]", "values": [{"measurement": "GSH", "setting": "[1]", "value": "4.7 ± 1.1", "unit": "μmol/mg protein"}, {"measurement": "Protection (GSH content)", "setting": "[1]", "value": 48.8, "unit": "%"}, {"measurement": "Protection (GSH content)", "setting": "[1]; listed as deoxyschizandrin", "value": "about 50%"}, {"measurement": "Nitrate", "setting": "[2]", "value": "121.9 ± 3.1", "unit": "nM"}, {"measurement": "Protection (NO content)", "setting": "[2]", "value": 40.2, "unit": "%"}, {"measurement": "Viability (%) NMDA-insulted", "setting": "[3]", "value": "11.0 ± 3.5", "unit": "%"}]}, {"smiles": "COc1cc2c(c(OC)c1OC)-c1c(cc3c(c1OC)OCO3)C[C@H](C)[C@H](C)C2", "note": "[Gomisin N, gomisin N]", "values": [{"measurement": "GSH", "setting": "[1]", "value": "4.8 ± 1.3", "unit": "μmol/mg protein"}, {"measurement": "Protection (GSH content)", "setting": "[1]", "value": 51.2, "unit": "%"}, {"measurement": "Protection (GSH content)", "setting": "[1]; listed as gomisin N", "value": "about 50%"}, {"measurement": "Nitrate", "setting": "[2]", "value": "111.4 ± 3.3", "unit": "nM"}, {"measurement": "Protection (NO content)", "setting": "[2]", "value": 60.2, "unit": "%"}, {"measurement": "neuroprotective activity against toxicity induced by NMDA (in words)", "setting": "[3]", "value": "relatively better neuroprotective activity"}, {"measurement": "Viability (%) NMDA-insulted", "setting": "[3]", "value": "45.5 ± 6.8", "unit": "%"}]}, {"smiles": "COc1c2c(cc3c1-c1c(cc4c(c1OC)OCO4)C[C@H](C)[C@H](C)C3)OCO2", "note": "[Wuweizisu C, wuweizisu C]", "values": [{"measurement": "GSH", "setting": "[1]", "value": "4.4 ± 0.9", "unit": "μmol/mg protein"}, {"measurement": "Protection (GSH content)", "setting": "[1]", "value": 41.9, "unit": "%"}, {"measurement": "Protection (GSH content)", "setting": "[1]; listed as wuweizisu C", "value": "about 50%"}, {"measurement": "Nitrate", "setting": "[2]", "value": "107.6 ± 2.9", "unit": "nM"}, {"measurement": "Protection (NO content)", "setting": "[2]", "value": 65.8, "unit": "%"}, {"measurement": "neuroprotective activity against toxicity induced by NMDA (in words)", "setting": "[3]", "value": "has neuroprotective activity"}, {"measurement": "Viability (%) NMDA-insulted", "setting": "[3]", "value": "52.1 ± 7.1", "unit": "%"}]}]}
